Data on 1 compound can be found in ChEMBL document CHEMBL4190187, “Discovery of pyrazolopyrimidine derivatives as novel inhibitors of ataxia telangiectasia and rad3 related protein (ATR)” (Bioorg Med Chem Lett, 2017).

For test [1], the target named is Tyrosine-protein kinase ABL2 (Homo sapiens) (UniProt P42684). Kind of test: Inhibition of recombinant human ARG (38 to end residues) at 1 uM using EAIYAAPFAKKK as substrate after 40 mins in presence of [gamma-33P]ATP by scintillation counting method.
Test [2] has as its target Aurora kinase A (Homo sapiens) (UniProt O14965). Description: Inhibition of recombinant full-length human Aurora-A at 1 uM using LRRASLG (kemptide) as substrate after 40 mins in presence of [gamma-33P]ATP by scintillation counting method.
Test [3] addresses Casein kinase I isoform gamma-2 (Homo sapiens) (UniProt P78368). Description: Inhibition of recombinant human CK1gamma2 (18 to end residues) at 1 uM using KRRRALS(p)VASLPGL s substrate after 40 mins in presence of [gamma-33P]ATP by scintillation counting method.
The target in test [4] is Mast/stem cell growth factor receptor Kit (Homo sapiens) (UniProt P10721). Description: Inhibition of recombinant human cKit (544 to end residues) at 1 uM using poly(Glu,Tyr) 4:1 as substrate after 40 mins in presence of [gamma-33P]ATP by scintillation counting method.
Test [5] addresses Serine/threonine-protein kinase DCLK2 (Homo sapiens) (UniProt Q8N568). Description: Inhibition of recombinant human DCAMKL2 (376 to end residues) at 1 uM using KKLNRTLSFAEPG as substrate after 40 mins in presence of [gamma-33P]ATP by scintillation counting method.
Test [6] concerns the target Receptor tyrosine-protein kinase erbB-2 (Homo sapiens) (UniProt P04626). Description: Inhibition of recombinant human ErbB2 (676 to end residues) at 1 uM using poly(Glu,Tyr) 4:1 as substrate after 40 mins in presence of [gamma-33P]ATP by scintillation counting method.
In test [7] the target is Receptor tyrosine-protein kinase erbB-4 (Homo sapiens) (UniProt Q15303). Description: Inhibition of recombinant human ErbB4 (706 to 991 residues) at 1 uM using poly(Glu,Tyr) 4:1 as substrate after 40 mins in presence of [gamma-33P]ATP by scintillation counting method.
Test [8] addresses Glycogen synthase kinase-3 alpha (Homo sapiens) (UniProt P49840). Description: Inhibition of recombinant human GSK3alpha (2 to end residues) at 1 uM using YRRAAVPPSPSLSRHSSPHQS(p)EDEEE (phospho GS2 peptide) as substrate after 40 mins in presence of [gamma-33P]ATP by scintillation counting method.
For test [9], the target named is Insulin-like growth factor 1 receptor (Homo sapiens) (UniProt P08069). Kind of test: Inhibition of recombinant human IGF-1R (959 to end residues) at 1 uM using KKKSPGEYVNIEFG as substrate after 40 mins in presence of [gamma-33P]ATP by scintillation counting method.
The target is the same in test [10]. Description: Inhibition of recombinant human activated IGF-1R (959 to end residues) at 1 uM using KKKSPGEYVNIEFG as substrate after 40 mins in presence of [gamma-33P]ATP by scintillation counting method.
Test [11] addresses Tyrosine-protein kinase JAK1 (Homo sapiens) (UniProt P23458). Description: Inhibition of recombinant human JAK1 (866 to end residues) at 1 uM using GEEPLYWSFPAKKK as substrate after 40 mins in presence of [gamma-33P]ATP by scintillation counting method.
Test [12] has as its target Tyrosine-protein kinase Lck (Homo sapiens) (UniProt P06239). Description: Inhibition of recombinant full-length human Lck at 1 uM using KVEKIGEGTYGVVYK (Cdc2 peptide) as substrate after 40 mins in presence of [gamma-33P]ATP by scintillation counting method.
The target of test [13] is Serine/threonine-protein kinase Nek2 (Homo sapiens) (UniProt P51955). Kind of test: Inhibition of recombinant full-length human NEK2 at 1 uM using myelin basic protein as substrate after 40 mins in presence of [gamma-33P]ATP by scintillation counting method.
Test [14] deals with Serine/threonine-protein kinase Nek6 (Homo sapiens) (UniProt Q9HC98). Description: Inhibition of recombinant human NEK6 (2 to end residues) at 1 uM using FLAKSFGSPNRAYKK as substrate after 40 mins in presence of [gamma-33P]ATP by scintillation counting method.
The test system of test [15] is Ribosomal protein S6 kinase beta-1 (Homo sapiens), P23443 [T412E]. Kind of test: Inhibition of recombinant human p70S6K T412E mutant (1 to 421 residues) at 1 uM using KKRNRTLTV as substrate after 40 mins in presence of [gamma-33P]ATP by scintillation counting method.
Test [16] is filed under the species Homo sapiens. Description: Inhibition of recombinant full-length human p110a/recombinant p65a (1 to 571 residues) at 1 uM using phosphatidylinositol 4,5-bisphosphate as substrate after 40 mins in presence of [gamma-33P]ATP by scintillation counting method.
In test [17] the target is Protein kinase C delta type (Homo sapiens) (UniProt Q05655). Description: Inhibition of recombinant human PKCdelta (2 to end residues) at 1 uM using ERMRPRKRQGSVRRRV as substrate after 40 mins in presence of [gamma-33P]ATP by scintillation counting method.
For test [18], the target named is Protein-tyrosine kinase 2-beta (Homo sapiens) (UniProt Q14289). Kind of test: Inhibition of recombinant full-length human Pyk2 at 1 uM using poly(Glu,Tyr) 4:1 as substrate after 40 mins in presence of [gamma-33P]ATP by scintillation counting method.
Test [19] concerns Mitogen-activated protein kinase 14 (Homo sapiens), Q16539 [T106M]. Description: Inhibition of recombinant full-length human SAPK2a T106M mutant at 1 uM using myelin basic protein as substrate after 40 mins in presence of [gamma-33P]ATP by scintillation counting method.
In test [20] the target is Serine/threonine-protein kinase SIK2 (Homo sapiens) (UniProt Q9H0K1). Kind of test: Inhibition of recombinant human SIK2 (1 to 276 residues) at 1 uM using KKKVSRSGLYRSPSMPENLNRPR as substrate after 40 mins in presence of [gamma-33P]ATP by scintillation counting method.
The target in test [21] is SRSF protein kinase 1 (Homo sapiens) (UniProt Q96SB4). Kind of test: Inhibition of recombinant human SRPK1 (2 to end residues) at 1 uM using RSRSRSRSRSRSRSR as substrate after 40 mins in presence of [gamma-33P]ATP by scintillation counting method.
The target of test [22] is Testis-specific serine/threonine-protein kinase 4 (Homo sapiens) (UniProt Q6SA08). Description: Inhibition of recombinant full-length human TSSK4 at 1 uM using KKLNRTLSFAEPG as substrate after 40 mins in presence of [gamma-33P]ATP by scintillation counting method.
Test [23] deals with Serine/threonine-protein kinase ULK2 (Homo sapiens) (UniProt Q8IYT8). Kind of test: Inhibition of recombinant human ULK2 (1 to 306 residues) at 1 uM using casein as substrate after 40 mins in presence of [gamma-33P]ATP by scintillation counting method.

The structures appear in SMILES notation.

Insulin-like growth factor 1 receptor (Homo sapiens), sequence (P08069 31-736 limits assumed): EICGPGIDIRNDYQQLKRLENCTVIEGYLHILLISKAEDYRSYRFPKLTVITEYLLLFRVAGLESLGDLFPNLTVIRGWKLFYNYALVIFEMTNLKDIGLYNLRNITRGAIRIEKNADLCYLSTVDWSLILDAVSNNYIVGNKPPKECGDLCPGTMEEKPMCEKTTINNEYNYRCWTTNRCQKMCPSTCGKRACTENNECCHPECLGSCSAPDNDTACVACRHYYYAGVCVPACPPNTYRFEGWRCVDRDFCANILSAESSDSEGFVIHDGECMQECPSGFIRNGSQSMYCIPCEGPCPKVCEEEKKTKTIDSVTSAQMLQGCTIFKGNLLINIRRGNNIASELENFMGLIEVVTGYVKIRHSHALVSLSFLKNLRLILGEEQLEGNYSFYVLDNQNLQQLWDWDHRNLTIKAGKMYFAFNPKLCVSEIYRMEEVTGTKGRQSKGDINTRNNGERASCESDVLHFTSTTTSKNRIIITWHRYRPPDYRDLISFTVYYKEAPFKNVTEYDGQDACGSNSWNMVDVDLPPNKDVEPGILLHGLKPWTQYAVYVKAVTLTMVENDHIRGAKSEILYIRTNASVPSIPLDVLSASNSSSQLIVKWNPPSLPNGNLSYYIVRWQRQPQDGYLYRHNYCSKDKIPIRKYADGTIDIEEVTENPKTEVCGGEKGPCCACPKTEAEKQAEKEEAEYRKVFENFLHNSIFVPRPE
Insulin-like growth factor 1 receptor (Homo sapiens), sequence (P08069 741-1367 limits assumed): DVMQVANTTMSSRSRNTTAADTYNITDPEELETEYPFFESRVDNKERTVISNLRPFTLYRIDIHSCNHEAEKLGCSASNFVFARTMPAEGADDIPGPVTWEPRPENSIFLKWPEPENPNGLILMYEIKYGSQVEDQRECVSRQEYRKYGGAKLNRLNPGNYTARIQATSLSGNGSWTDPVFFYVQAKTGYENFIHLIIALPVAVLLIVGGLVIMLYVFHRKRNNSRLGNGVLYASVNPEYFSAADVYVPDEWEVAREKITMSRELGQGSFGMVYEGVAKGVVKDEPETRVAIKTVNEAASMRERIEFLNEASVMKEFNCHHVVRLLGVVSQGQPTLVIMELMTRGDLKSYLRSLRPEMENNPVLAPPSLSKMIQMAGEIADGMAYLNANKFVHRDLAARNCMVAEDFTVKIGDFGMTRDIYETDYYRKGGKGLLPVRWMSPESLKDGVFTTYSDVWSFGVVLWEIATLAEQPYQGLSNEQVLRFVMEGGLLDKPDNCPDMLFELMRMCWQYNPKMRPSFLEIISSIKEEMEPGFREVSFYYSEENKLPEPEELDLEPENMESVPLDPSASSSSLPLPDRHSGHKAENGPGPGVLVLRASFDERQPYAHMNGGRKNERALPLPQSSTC
Mast/stem cell growth factor receptor Kit (Homo sapiens), sequence (P10721 whole entry): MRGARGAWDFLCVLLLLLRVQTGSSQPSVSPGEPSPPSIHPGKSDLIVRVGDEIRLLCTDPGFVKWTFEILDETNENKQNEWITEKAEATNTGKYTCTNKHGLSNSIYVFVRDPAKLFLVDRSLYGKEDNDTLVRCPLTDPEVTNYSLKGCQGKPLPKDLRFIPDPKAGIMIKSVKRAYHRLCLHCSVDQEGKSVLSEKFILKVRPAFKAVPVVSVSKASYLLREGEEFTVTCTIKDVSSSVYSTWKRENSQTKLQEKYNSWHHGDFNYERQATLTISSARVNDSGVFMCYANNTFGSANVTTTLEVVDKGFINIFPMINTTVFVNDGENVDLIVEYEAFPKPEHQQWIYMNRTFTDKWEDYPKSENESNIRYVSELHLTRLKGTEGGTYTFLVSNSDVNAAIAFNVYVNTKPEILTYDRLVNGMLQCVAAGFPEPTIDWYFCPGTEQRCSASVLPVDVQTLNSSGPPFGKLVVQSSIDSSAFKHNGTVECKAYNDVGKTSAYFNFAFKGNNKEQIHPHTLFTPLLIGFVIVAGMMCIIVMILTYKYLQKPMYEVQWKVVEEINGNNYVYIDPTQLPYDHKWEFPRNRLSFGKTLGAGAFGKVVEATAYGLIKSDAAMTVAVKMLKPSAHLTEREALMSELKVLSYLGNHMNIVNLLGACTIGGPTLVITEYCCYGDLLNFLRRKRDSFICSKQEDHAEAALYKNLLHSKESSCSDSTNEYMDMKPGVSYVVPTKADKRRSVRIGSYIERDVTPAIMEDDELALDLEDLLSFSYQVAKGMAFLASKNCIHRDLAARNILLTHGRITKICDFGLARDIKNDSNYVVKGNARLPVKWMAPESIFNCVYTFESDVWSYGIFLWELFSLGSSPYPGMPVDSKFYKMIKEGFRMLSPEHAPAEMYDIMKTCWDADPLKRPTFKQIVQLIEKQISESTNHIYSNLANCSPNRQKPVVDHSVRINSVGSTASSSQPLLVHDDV
Serine/threonine-protein kinase DCLK2 (Homo sapiens), sequence (Q8N568 whole entry): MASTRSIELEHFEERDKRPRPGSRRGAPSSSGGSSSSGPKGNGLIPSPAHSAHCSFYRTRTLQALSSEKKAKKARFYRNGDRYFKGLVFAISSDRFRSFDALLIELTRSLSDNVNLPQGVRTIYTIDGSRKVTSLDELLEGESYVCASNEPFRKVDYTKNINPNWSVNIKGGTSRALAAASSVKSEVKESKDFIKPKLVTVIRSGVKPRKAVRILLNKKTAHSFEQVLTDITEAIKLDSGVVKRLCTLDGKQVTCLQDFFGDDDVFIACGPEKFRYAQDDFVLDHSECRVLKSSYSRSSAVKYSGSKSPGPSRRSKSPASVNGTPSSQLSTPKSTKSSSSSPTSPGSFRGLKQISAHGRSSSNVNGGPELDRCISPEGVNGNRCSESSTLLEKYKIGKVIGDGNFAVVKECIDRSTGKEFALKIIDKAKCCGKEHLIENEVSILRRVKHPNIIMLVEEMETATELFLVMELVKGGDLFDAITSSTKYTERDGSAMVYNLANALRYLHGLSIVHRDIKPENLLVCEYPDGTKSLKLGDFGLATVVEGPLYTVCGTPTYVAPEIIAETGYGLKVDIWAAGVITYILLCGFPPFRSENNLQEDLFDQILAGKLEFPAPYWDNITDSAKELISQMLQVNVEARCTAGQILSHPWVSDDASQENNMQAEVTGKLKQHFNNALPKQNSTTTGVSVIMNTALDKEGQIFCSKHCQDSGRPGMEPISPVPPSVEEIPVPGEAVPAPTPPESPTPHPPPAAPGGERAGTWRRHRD
Serine/threonine-protein kinase ULK2 (Homo sapiens), sequence (Q8IYT8 whole entry, the tested form may be a part): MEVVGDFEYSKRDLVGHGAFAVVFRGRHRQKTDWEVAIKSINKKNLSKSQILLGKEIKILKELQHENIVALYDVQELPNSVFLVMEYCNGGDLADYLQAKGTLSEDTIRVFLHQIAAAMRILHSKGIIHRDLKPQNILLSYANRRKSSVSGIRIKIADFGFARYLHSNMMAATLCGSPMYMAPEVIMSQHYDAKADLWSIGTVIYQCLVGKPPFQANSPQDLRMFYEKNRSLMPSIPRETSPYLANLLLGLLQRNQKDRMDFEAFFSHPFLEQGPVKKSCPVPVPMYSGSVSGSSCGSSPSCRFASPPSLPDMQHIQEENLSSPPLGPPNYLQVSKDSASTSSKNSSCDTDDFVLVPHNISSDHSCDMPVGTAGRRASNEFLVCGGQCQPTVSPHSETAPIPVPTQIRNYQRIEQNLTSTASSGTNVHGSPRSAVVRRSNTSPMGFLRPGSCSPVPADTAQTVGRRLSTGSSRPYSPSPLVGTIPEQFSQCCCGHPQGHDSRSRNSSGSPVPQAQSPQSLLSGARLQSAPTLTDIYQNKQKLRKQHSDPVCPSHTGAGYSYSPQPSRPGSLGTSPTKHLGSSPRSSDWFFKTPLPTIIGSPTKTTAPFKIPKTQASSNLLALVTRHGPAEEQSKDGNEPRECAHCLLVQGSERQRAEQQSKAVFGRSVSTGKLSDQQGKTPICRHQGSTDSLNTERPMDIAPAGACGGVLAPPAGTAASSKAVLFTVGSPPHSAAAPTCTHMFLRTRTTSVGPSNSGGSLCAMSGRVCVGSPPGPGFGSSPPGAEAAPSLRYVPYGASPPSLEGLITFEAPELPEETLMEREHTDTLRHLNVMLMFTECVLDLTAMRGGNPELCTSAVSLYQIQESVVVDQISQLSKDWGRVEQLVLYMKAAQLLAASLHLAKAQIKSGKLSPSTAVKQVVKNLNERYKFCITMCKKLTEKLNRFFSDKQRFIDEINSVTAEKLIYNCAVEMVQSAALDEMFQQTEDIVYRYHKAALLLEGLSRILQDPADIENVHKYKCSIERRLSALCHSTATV
Ribosomal protein S6 kinase beta-1 (Homo sapiens), P23443 [T412E], sequence (P23443 whole entry T412E, looked up, the tested form may be a part): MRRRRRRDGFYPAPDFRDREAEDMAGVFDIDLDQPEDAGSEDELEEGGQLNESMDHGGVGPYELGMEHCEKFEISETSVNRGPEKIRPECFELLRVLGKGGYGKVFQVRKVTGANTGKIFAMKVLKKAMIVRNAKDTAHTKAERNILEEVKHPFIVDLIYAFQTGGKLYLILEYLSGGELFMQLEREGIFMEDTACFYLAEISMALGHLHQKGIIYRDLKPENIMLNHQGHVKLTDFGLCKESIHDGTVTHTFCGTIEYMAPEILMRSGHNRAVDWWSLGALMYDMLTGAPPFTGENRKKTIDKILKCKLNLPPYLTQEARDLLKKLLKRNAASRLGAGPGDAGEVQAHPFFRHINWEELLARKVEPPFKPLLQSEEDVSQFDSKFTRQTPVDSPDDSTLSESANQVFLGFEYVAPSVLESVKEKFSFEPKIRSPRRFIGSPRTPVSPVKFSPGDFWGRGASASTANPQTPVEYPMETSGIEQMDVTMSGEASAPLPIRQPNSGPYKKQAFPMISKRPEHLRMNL
Mitogen-activated protein kinase 14 (Homo sapiens), Q16539 [T106M], sequence (Q16539 whole entry T106M, the tested form may be a part): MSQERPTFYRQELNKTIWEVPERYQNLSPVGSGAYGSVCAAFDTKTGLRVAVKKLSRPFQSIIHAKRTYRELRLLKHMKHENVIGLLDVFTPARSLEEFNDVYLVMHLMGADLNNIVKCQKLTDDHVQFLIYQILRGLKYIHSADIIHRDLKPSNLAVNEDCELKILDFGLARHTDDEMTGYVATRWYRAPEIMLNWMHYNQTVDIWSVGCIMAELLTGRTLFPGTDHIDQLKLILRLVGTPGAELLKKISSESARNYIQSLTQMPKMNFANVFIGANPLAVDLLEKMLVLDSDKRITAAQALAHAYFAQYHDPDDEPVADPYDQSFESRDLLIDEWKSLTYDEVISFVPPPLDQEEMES

As a reminder, the inhibition is the change of the read-out against control, counted positive when it falls. As for `CS(=O)(=O)c1ccc(-n2nc(-c3cnc4[nH]ccc4c3)c3c(N)ncnc32)cc1`, the inhibition in test [1] is 61%; in test [2], 15%; in [3], 18%; in [4], 4%; in test [5], -1%; in [6] it was 6%. Besides, the inhibition in test [7] was 4%; in test [8] it was 17%; in test [9], -2%; in test [10] it was 11%; in [11] it was 36%; in [12], 55%. The inhibition in test [13] is 3%; in [14], -4%; in [15] it was -2%; in test [16], 8%; in test [17], 1%; in test [18], 25%. Besides, the inhibition in [19] is 0%; in [20], 21%; in [21], 1%; in [22] it was -10%; in test [23] it was 5%.
